Like-named read-outs stand apart in the source and are kept apart here.
Assays:
C. albicans ATCC 90028 = experiment: Broth macrodilution MIC/MFC; assay type: cell-based, Candida albicans; conditions: for MFC: Candida albicans ATCC 90028; for MIC: Candida albicans
Method: (§1) TMPN was screened against yeasts by the broth macrodilution assay according to the NCCLS [7]. Yeasts were suspended and diluted as recommended to yield final inocula ranging from 0.5-2.5×10^3 cfu/ml. Tests were performed in sterile 12 by 75 mm plastic tubes containing two-fold dilutions of TMPN in 0.165 M morpholinepropanesulfonic acid buffered RPMI 1640 medium (pH 7.0). One tube was again left drug free (but contained an equivalent volume of DMSO) for a turbidity control. Tubes were incubated without agitation at the appropriate temperature (see Fungal Strains section above). MICs were determined after 72 h for Cryptococcus and after 48 h for other yeast genera. The MIC was defined as the lowest concentration of TMPN that inhibited all visible growth of the test organism (optically clear).
(§2) Minimum fungicidal concentrations (MFCs) were determined by subculturing 0.1 ml from each tube with no visible growth in the MIC broth macrodilution series onto the appropriate drug-free plates (see Fungal Strains section above).
Possible host effects were also evaluated. Broth macrodilution assays were performed with RPMI medium prepared at pH 5, pH 6, and pH 7, and in RPMI medium with and without 50% normal human serum (Lampire Biological Labs). The pH experiments were performed twice on separate days.

C. albidus ATCC 66030 = experiment: Broth macrodilution MIC/MFC; assay type: cell-based, Cryptococcus albidus
Method: as §1, §2

C. albidus ATCC 40666 = experiment: Broth macrodilution MIC/MFC; assay type: cell-based, Cryptococcus albidus
Method: as §1, §2

C. albidus ATCC 34140 = experiment: Broth macrodilution MIC/MFC; assay type: cell-based, Cryptococcus albidus
Method: as §1, §2

[1] = test system: all 60 Candida spp. clinical isolates; experiment: Broth macrodilution MFC/MIC ratios, combined Candida isolates; assay type: cell-based; conditions: all 60 Candida spp. clinical isolates combined
Method: as §1, §2

fungal = experiment: Frequency of fungal spontaneous mutations to resistance (summary); assay type: cell-based; conditions: summary statement
Method: Determination of the frequency of occurrence of spontaneous mutants was performed as previously described. Overnight cultures of C neoformans (ATCC 90112), C. albicans (ATCC 90028) and Trichosporon inkin (ATCC 18020) were diluted to an OD530 nm=0.3. 0.1 ml of each preparation was spread onto SDA plates containing four or eight times the broth macrodilution MIC of TMPN. The starting inoculum for each organism was also diluted and plated onto drug-free SDA plates for determination of cfu/ml. After a 48 h incubation at the appropriate temperature (see Fungal Strains section above), the number of colonies on drug-supplemented SDA was counted. The frequency of occurrence of spontaneous mutants was calculated by dividing the number of colonies on drug-containing plates by the number of colonies in the inoculum. When no colonies were visualized on drug-containing plates, the calculation was (<) 1 colony divided by the number of colonies in the inoculum.

P388 leukemia = experiment: Sulforhodamine B cancer cell growth inhibition; assay type: cell-based, murine; conditions: Mus musculus, 48 h, read-out: GI50 (inhibition of 50% of cell growth)
Method: An investigation TMPN's in vitro antineoplastic activity was also conducted. This investigation included an analysis of both cell growth, and of the effects of TMPN upon tubulin. Inhibition of cancer cell growth was assessed using the Sulforhodamine B assay as previously described. Briefly, cells in 5% fetal calf serum/RPMI-1640 were inoculated into 96 well plates, incubated 24 h and 10-fold dilutions of TMPN added. After a 48 h incubation, plates were fixed with trichloroacetic acid, washed, stained with Sulforhodamine B and read with an automated microtiter plate reader.

T. asahii ATCC 20039 = experiment: Broth macrodilution MIC/MFC; assay type: cell-based, Trichosporon asahii
Method: as §1, §2

C. laurentii ATCC 34142 = experiment: Broth macrodilution MIC/MFC; assay type: cell-based, Cryptococcus laurentii
Method: as §1, §2

C. laurentii ATCC 66036 = experiment: Broth macrodilution MIC/MFC; assay type: cell-based, Cryptococcus laurentii
Method: as §1, §2

C. laurentii ATCC 18803 = experiment: Broth macrodilution MIC/MFC; assay type: cell-based, Cryptococcus laurentii
Method: as §1, §2

bovine brain tubulin = test system: T1, bovine brain tubulin; experiment: Colchicine binding assay; conditions: 10 min at 37° C.
T1 construct: Electrophoretically homogeneous bovine brain tubulin [12]
Method: Electrophoretically homogeneous bovine brain tubulin [12] was used in studies to evaluate the effects of TMPN on in vitro tubulin polymerization and the binding of […] (Dupont-NEN) to tubulin. These studies were performed as described previously. In the polymerization assay, varying drug concentrations were added to 1 mg/ml tubulin to determine the amount of drug that would inhibit the extent of the reaction by 50% (20 min incubation at 30° C.) (IC50 value). In the colchicine binding assay, the effect of varying drug concentrations on the binding of 2 μg/ml colchicine to 100 μg/ml tubulin was measured after 10 min at 37° C. (control reaction about 50% complete).

COc1cc(C=C[N+](=O)[O-])cc(OC)c1OC [TMPN, 1-(3′,4′,5′-trimethoxyphenyl)-2-nitro-ethylene]
16 µg/mL: MIC (C. albicans ATCC 90028; ATCC90028, Candida albicans ATCC 90028, 40 μg/ml bovine serum albumin) | MFC Range (C. albidus ATCC 66030) | MFC Range (T. asahii ATCC 20039) | MIC Range (C. laurentii ATCC 66036) | MIC Range (C. laurentii ATCC 18803)
< 10^−6: frequency of fungal spontaneous mutations to resistance (fungal)
60%: share of isolates with MFC/MIC ratio ≦4 [1]
32 (32) μg/ml: MFC (C. albicans ATCC 90028; 20 μg/ml bovine serum albumin) | MFC (C. albicans ATCC 90028; no bovine serum albumin)
69±0.5%: inhibition of [^3H]colchicine binding to tubulin (bovine brain tubulin; 12 μg/ml (50 uM))
47%: share of isolates with MFC/MIC ratio ≦2 [1]
13±0.5%: inhibition of [^3H]colchicine binding to tubulin (bovine brain tubulin; 5 μM (combretastatin A-4 1.6 μg/ml; TMPN 1.2 μg/ml))
32 (32), 32 (32) μg/ml: MFC (C. albicans ATCC 90028; pH 5, repeat experiment) | MFC (C. albicans ATCC 90028; pH 6, repeat experiment) | MFC (C. albicans ATCC 90028; pH 7, repeat experiment)
> 64 µg/mL: MIC (C. albicans ATCC 90028; ATCC90028, Candida albicans ATCC 90028, 50% human serum)
8 µg/mL: MIC Range (C. albidus ATCC 66030) | MIC Range (C. albidus ATCC 40666) | MIC Range (T. asahii ATCC 20039)
4.15 µg/mL: GI50 (P388 leukemia)
32 µg/mL: MFC (C. albicans ATCC 90028; ATCC90028, no serum, read-out: MFC) | MFC (C. albicans ATCC 90028; ATCC90028, pH 5, read-out: MFC) | MFC (C. albicans ATCC 90028; ATCC90028, pH 6, read-out: MFC) | MFC (C. albicans ATCC 90028; ATCC90028, pH 7, read-out: MFC) | MFC Range (C. albicans ATCC 90028; C. albicans ATCC 90028) | MIC Range (C. albicans ATCC 90028; C. albicans ATCC 90028) | MFC (C. albicans ATCC 90028; 40 μg/ml bovine serum albumin) | MIC (C. albicans ATCC 90028; ATCC90028, Candida albicans ATCC 90028, 20 μg/ml bovine serum albumin) | MIC (C. albicans ATCC 90028; ATCC90028, Candida albicans ATCC 90028, no bovine serum albumin) | MIC (C. albicans ATCC 90028; ATCC90028, Candida albicans ATCC 90028, no serum) | MIC (C. albicans ATCC 90028; ATCC90028, pH 5, Candida albicans ATCC 90028, pH 5) | MIC (C. albicans ATCC 90028; ATCC90028, pH 5, Candida albicans ATCC 90028, pH 5, repeat experiment) | MIC (C. albicans ATCC 90028; ATCC90028, pH 6, Candida albicans ATCC 90028, pH 6) | MIC (C. albicans ATCC 90028; ATCC90028, pH 6, Candida albicans ATCC 90028, pH 6, repeat experiment) | MIC (C. albicans ATCC 90028; ATCC90028, pH 7, Candida albicans ATCC 90028, pH 7) | MIC (C. albicans ATCC 90028; ATCC90028, pH 7, Candida albicans ATCC 90028, pH 7, repeat experiment) | MFC Range (C. albidus ATCC 40666) | MFC Range (C. albidus ATCC 34140) | MIC Range (C. albidus ATCC 34140) | MFC Range (C. laurentii ATCC 34142) | MIC Range (C. laurentii ATCC 34142) | MFC Range (C. laurentii ATCC 66036) | MFC Range (C. laurentii ATCC 18803)
